The results in this text go back to patent publication US8329904B2, “Azacyclic derivatives” (Hoffmann-La Roche Inc., priority 2009, dated 2012).

This experiment has as its target T1, human HSL (Homo sapiens, UniProt Q05469).
T1 construct: overlapping PCR to generate a full length human HSL ORF with a 3′-His6 tag; His6 (C); made in house; host or cells: High 5 insect cells (baculovirus, pFast-BAC)
T1 sequence (Q05469 1-1076): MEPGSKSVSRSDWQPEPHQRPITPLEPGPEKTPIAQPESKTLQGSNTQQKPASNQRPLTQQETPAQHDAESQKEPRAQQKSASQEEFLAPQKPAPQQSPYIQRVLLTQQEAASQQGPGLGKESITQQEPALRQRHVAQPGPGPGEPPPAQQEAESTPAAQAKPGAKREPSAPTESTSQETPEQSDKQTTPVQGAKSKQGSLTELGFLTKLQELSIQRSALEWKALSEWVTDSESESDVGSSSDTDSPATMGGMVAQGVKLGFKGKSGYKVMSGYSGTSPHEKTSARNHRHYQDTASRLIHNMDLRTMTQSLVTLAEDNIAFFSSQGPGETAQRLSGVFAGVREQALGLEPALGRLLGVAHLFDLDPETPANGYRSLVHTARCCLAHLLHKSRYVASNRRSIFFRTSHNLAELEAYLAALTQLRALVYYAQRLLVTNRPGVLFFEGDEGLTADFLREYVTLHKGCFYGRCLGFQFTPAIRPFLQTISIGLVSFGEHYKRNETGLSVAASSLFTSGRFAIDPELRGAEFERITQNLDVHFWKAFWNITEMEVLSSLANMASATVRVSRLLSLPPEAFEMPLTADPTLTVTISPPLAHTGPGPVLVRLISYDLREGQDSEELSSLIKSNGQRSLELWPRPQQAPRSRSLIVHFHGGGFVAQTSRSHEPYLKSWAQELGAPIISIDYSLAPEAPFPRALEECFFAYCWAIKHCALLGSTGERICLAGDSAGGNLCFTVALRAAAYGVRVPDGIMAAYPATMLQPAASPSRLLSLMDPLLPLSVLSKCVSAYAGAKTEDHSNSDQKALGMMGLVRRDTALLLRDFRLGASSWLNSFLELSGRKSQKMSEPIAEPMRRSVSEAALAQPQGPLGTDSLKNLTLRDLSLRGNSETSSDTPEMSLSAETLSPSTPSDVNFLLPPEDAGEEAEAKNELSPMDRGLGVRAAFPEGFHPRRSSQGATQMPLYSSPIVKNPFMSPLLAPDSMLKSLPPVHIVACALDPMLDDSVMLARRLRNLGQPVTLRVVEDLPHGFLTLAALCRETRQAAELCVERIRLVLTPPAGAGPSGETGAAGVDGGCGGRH
As to the kind of experiment: Human Hormone-Sensitive Lipase (HSL) Enzyme Inhibition Assay. Particulars: colorimetric assay, 2,3-dimercapto-1-propanol tributyrate (DMPT) substrate, 37° C. for 20 minutes, absorbance at 405 nm; read-out: HSL hum IC50. It is filed as biochemical. The procedure, abridged: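 Colorimetric thioester hydrolysis: compounds in DMSO series mixed with DMPT (1.5 mM) in MOPS pH 7.2 with BSA, then baculovirus-expressed His6-tagged full-length human HSL added, 37° C, 20 min. DTNB plus detergents added, 15 min room temperature, absorbance at 405 nm.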
Consider `O=C1N(c2ccc(Cc3nnc(C(F)(F)F)o3)cc2)CCC12CCN(S(=O)(=O)c1ccccc1Cl)CC2` [Example 138, 8-(2-Chloro-benzenesulfonyl)-2-[4-(5-trifluoromethyl-[1,3,4]oxadiazol-2-ylmethyl)-phenyl]-2,8-diaza-spiro[4.5]decan-1-one], for which the IC50 is 530 nM.

`CC(C)(C)CS(=O)(=O)N1CCC2(CCN(c3ccc(OCCC(F)(F)F)cc3)C2=O)CC1` [Example 139, 8-(Neopentylsulfonyl)-2-(4-(3,3,3-trifluoropropoxy)phenyl)-2,8-diazaspiro[4.5]decan-1-one]: the IC50 came out at 310 nM.

Take `CS(=O)(=O)c1ccc(N2CCC3(CCN(S(=O)(=O)c4ccccc4Cl)CC3)C2=O)cc1` [Example 140, 8-(2-Chloro-benzenesulfonyl)-2-(4-methanesulfonyl-phenyl)-2,8-diaza-spiro[4.5]decan-1-one]: the IC50 is 40 nM.

As to `O=C1N(c2ccc(CO)cc2)CCC12CCN(S(=O)(=O)c1ccccc1Cl)CC2` [Example 141, 8-(2-Chloro-benzenesulfonyl)-2-(4-hydroxymethyl-phenyl)-2,8-diaza-spiro[4.5]decan-1-one], the IC50 is 360 nM.

For `COCc1ccc(N2CCC3(CCN(S(=O)(=O)c4ccccc4Cl)CC3)C2=O)cc1` [Example 142, 8-(2-Chloro-benzenesulfonyl)-2-(4-methoxymethyl-phenyl)-2,8-diaza-spiro[4.5]decan-1-one], the IC50 is 40 nM.

On to `CCc1ccc(N2CCC3(CCN(S(=O)(=O)c4ccccc4N4CCCC4=O)CC3)C2=O)cc1` [Example 143, 2-(4-Ethyl-phenyl)-8-[2-(2-oxo-pyrrolidin-1-yl)-benzenesulfonyl]-2,8-diaza-spiro[4.5]decan-1-one], for which the IC50 was found to be 170 nM.

Regarding `COC/C=C/c1ccc(N2CCC3(CCN(S(=O)(=O)c4ccccc4OC(F)(F)F)CC3)C2=O)cc1` [Example 144, 2-[4-((E)-3-Methoxy-propenyl)-phenyl]-8-(2-trifluoromethoxy-benzenesulfonyl)-2,8-diaza-spiro[4.5]decan-1-one], the IC50 came out at 50 nM.

`O=C1N(c2ccc(/C=C/C3CC3)cc2)CCC12CCN(S(=O)(=O)c1ccccc1OC(F)(F)F)CC2` [Example 145, 2-[4-((E)-2-Cyclopropyl-vinyl)-phenyl]-8-(2-trifluoromethoxy-benzenesulfonyl)-2,8-diaza-spiro[4.5]decan-1-one]: the IC50 amounted to 120 nM.

Take `COCCCc1ccc(N2CCC3(CCN(S(=O)(=O)c4ccccc4OC(F)(F)F)CC3)C2=O)cc1` [Example 146, 2-[4-(3-Methoxy-propyl)-phenyl]-8-(2-trifluoromethoxy-benzenesulfonyl)-2,8-diaza-spiro[4.5]decan-1-one]: the IC50 was 50 nM.

As to `O=C1N(c2ccc(CCC3CC3)cc2)CCC12CCN(S(=O)(=O)c1ccccc1OC(F)(F)F)CC2` [Example 147, 2-[4-(2-Cyclopropyl-ethyl)-phenyl]-8-(2-trifluoromethoxy-benzenesulfonyl)-2,8-diaza-spiro[4.5]decan-1-one], the IC50 stood at 60 nM.

Regarding `O=C1N(c2ccc(COCC3CC3)cc2)CCC12CCN(S(=O)(=O)c1ccccc1Cl)CC2` [Example 148, 8-(2-Chloro-benzenesulfonyl)-2-(4-cyclopropylmethoxymethyl-phenyl)-2,8-diaza-spiro[4.5]decan-1-ones], the IC50 came out at 90 nM.

For the compound `CCOCc1ccc(N2CCC3(CCN(S(=O)(=O)c4ccccc4Cl)CC3)C2=O)cc1` [Example 149, 8-(2-Chloro-benzenesulfonyl)-2-(4-ethoxymethyl-phenyl)-2,8-diaza-spiro[4.5]decan-1-one], the half-maximal inhibitory concentration (IC50) was determined as 40 nM.

Consider `COC(=O)c1ccc(N2CCC3(CCN(S(=O)(=O)c4ccccc4Cl)CC3)C2=O)cc1` [Example 150, 8 4-[8-(2-Chloro-benzenesulfonyl)-1-oxo-2,8-diaza-spiro[4.5]dec-2-yl]-benzoic acid methyl ester], for which the IC50 amounted to 40 nM.

Take `CC(=O)c1ccc(N2CCC3(CCN(S(=O)(=O)c4ccccc4Cl)CC3)C2=O)cc1` [Example 151, 2-(4-Acetyl-phenyl)-8-(2-chloro-benzenesulfonyl)-2,8-diaza-spiro[4.5]decan-1-one]: the IC50 is 50 nM.

As for `O=C1N(c2ccc(C(O)C(F)(F)F)cc2)CCC12CCN(S(=O)(=O)c1ccccc1Cl)CC2` (stereo not drawn) [Example 152, 8-(2-Chloro-benzenesulfonyl)-2-[4-(2,2,2-trifluoro-1-hydroxy-ethyl)-phenyl]-2,8-diaza-spiro[4.5]decan-1-one], the IC50 was determined as 20 nM.

In the case of `CC(O)c1ccc(N2CCC3(CCN(S(=O)(=O)c4ccccc4Cl)CC3)C2=O)cc1` (stereo not drawn) [Example 153, 8-(2-Chloro-benzenesulfonyl)-2-[4-(1-hydroxy-ethyl)-phenyl]-2,8-diaza-spiro[4.5]decan-1-one], the IC50 is 100 nM.

For `O=C1N(c2cc(C(F)(F)F)ccc2Cl)CCC12CCN(S(=O)(=O)c1ccccc1Cl)CC2` [Example 154, 8-(2-Chloro-benzenesulfonyl)-2-(2-chloro-5-trifluoromethyl-phenyl)-2,8-diaza-spiro[4.5]decan-1-one], the IC50 amounted to 210 nM.

For `CC(O)(c1ccc(N2CCC3(CCN(S(=O)(=O)c4ccccc4Cl)CC3)C2=O)cc1)C(F)(F)F` (stereo not drawn) [Example 155, 8-(2-Chloro-benzenesulfonyl)-2-[4-(2,2,2-trifluoro-1-hydroxy-1-methyl-ethyl)-phenyl]-2,8-diaza-spiro[4.5]decan-1-one], the IC50 was 20 nM.

`CCS(=O)(=O)c1ccc(N2CCC3(CCN(S(=O)(=O)c4ccccc4Cl)CC3)C2=O)cc1` [Example 156, 8-(2-Chloro-benzenesulfonyl)-2-(4-ethanesulfonyl-phenyl)-2,8-diaza-spiro[4.5]decan-1-one]: the IC50 came to 60 nM.

For `O=C1N(c2ccc(C(O)(C(F)(F)F)C(F)(F)F)cc2)CCC12CCN(S(=O)(=O)c1ccccc1Cl)CC2` [Example 157, 8-(2-Chloro-benzenesulfonyl)-2-[4-(2,2,2-trifluoro-1-hydroxy-1-trifluoromethyl-ethyl)-phenyl]-2,8-diaza-spiro[4.5]decan-1-one], the IC50 is 40 nM.

Take `O=C1N(c2ccc(C(F)(F)F)cc2)CCCC12CCN(S(=O)(=O)c1ccccc1Cl)CC2` [Example 158, 9-(2-Chloro-benzenesulfonyl)-2-(4-trifluoromethyl-phenyl)-2,9-diaza-spiro[5.5]undecan-1-one]: the IC50 was 120 nM.

Take `CCOCc1ccc(N2CCCC3(CCN(S(=O)(=O)c4ccccc4Cl)CC3)C2=O)cc1` [Example 159, 9-(2-Chloro-benzenesulfonyl)-2-(4-ethoxymethyl-phenyl)-2,9-diaza-spiro[5.5]undecan-1-one]: the IC50 came out at 300 nM.

`CC(C)NC(=O)c1ccc(N2CCC3(CCN(S(=O)(=O)c4ccccc4Cl)CC3)C2=O)cc1` [Example 160, 4-[8-(2-Chloro-benzenesulfonyl)-1-oxo-2,8-diaza-spiro[4.5]dec-2-yl]-N-isopropyl-benzamide]: the IC50 was found to be 900 nM.

As to `CC(C)N(C)C(=O)c1ccc(N2CCC3(CCN(S(=O)(=O)c4ccccc4Cl)CC3)C2=O)cc1` [Example 161, 4-[8-(2-Chloro-benzenesulfonyl)-1-oxo-2,8-diaza-spiro[4.5]dec-2-yl]-N-isopropyl-N-methyl-benzamide], the IC50 is 380 nM.

Take `O=C1N(c2ccc(C(O)C(F)(F)F)cc2)CCC12CCN(S(=O)(=O)c1ccccc1OC(F)(F)F)CC2` (stereo not drawn) [Example 163, 2-[4-(2,2,2-Trifluoro-1-hydroxy-ethyl)-phenyl]-8-(2-trifluoromethoxy-benzenesulfonyl)-2,8-diaza-spiro[4.5]decan-1-one]: the IC50 is 20 nM.

Regarding `Cc1noc(C)c1S(=O)(=O)N1CCC2(CCN(c3ccc(C(F)(F)F)cc3)C2=O)CC1` [Example 164, 8-(3,5-Dimethyl-isoxazole-4-sulfonyl)-2-(4-trifluoromethyl-phenyl)-2,8-diaza-spiro[4.5]decan-1-one], the IC50 is 280 nM.

With `CC(C)(C)CC(=O)N1CCC2(CC1)CCN(c1ccc(C(O)C(F)(F)F)cc1)C2=O` (stereo not drawn) [Example 165, 8-(3,3-Dimethyl-butyryl)-2-[4-(2,2,2-trifluoro-1-hydroxy-ethyl)-phenyl]-2,8-diaza-spiro[4.5]decan-1-one], the IC50 came out at 220 nM.

For orientation: IC50 means the midpoint of a concentration-inhibition curve.
